# Results published in patent US12491514B2, “Device, system, and method for trapping tissue samples” (University of Washington, priority 2019, dated 2025).
# What was measured:
# U87 glioma cuboids = assay: Drug treatment of U87 glioma cuboids on the microfluidic device, SYTOX green/Hoechst cell death staining; format: cell-based; conditions: for cell death response, mean fluorescence ratio SG dead nuclear to Hoechst pan-nuclear: 2 days (day 1 to day 3), U87 cuboids in device
# Protocol: U87 cuboids were cultured in collagen hydrogel. We prepared 80% collagen (Corning rat tail collagen type 1, 354236, 3-4 mg/mL), 10% 10×PBS, and 10% serum-free medium. We then used filtered-sterilized 1M NaOH to neutralize the pH to ˜7.2. For culture in 6 well plates, cuboids were cultured in 1 mL collagen on top of a 0.4 μm filter Transwell PFTE membrane insert (PICMORG50, Millipore) with 1.3 mL culture medium placed below. Cuboids were cultured both with and without an additional layer of pre-gelled 1 mL collagen below with similar histology and staining observed, apart from a relatively flatter shape often seen without the extra collagen layer. The culture medium contained Neurobas al-A medium (Invitrogen) with 25% heat-inactivated horse serum (Sigma), Glutamax (Invitrogen), 2× penicillin/streptomycin (Invitrogen), and growth factors (EGF 20 ng/mL and FGF 20 ng/mL, Preprotech or Invitrogen). Cisplatin (3 mM stock in dH2O, MedChem Express) was diluted in cell culture medium for the drug treatment experiment. Liver cuboids were cultured in 1 mL of collagen hydrogel on a Millipore insert with constant shaking. Culture medium was William's Medium (with L-glutamine, Invitrogen, Scotland) supplemented with 25 mM glucose (Sigma-Aldrich, USA), 30 nM insulin (ITS+premix, Zen-Bio, Inc., USA), 1 nM EGF (Preprotech), 5% Pen Strep (Sigma-Aldrich, USA), 100 nM glucagon (Sigma-Aldrich, USA). Live U87 glioma cuboids were stained for 1 hour, 37° C., with the following dyes (individually or in combination) diluted in culture medium: Cell Tracker Green CMFDA (Invitrogen, 10 μM), Cell Tracker Orange CMRA (Invitrogen, 10 μM), Hoechst (H; Invitrogen, 16 μM), and/or SYTOX green (SG; Invitrogen, 0.01 μM). […] Mean SG fluorescence was normalized to the average value of untreated cuboids. […] As a straightforward simple measure of cell viability, we measured the mean fluorescence ratio in epifluorescence images of SG dead nuclear fluorescence to Hoechst pan-nuclear fluorescence (FIG. 12B). […]
# U87 glioma slices = assay: Previous experiments with U87 glioma slices on and off a microfluidic device, SG/H live viability staining; format: cell-based; conditions: 30 and 100 μM
structure (smiles),measurement,setting,value
N.N.[Cl][Pt][Cl] [cisplatin],"cell death response, mean fluorescence ratio SG dead nuclear to Hoechst pan-nuclear",U87 glioma cuboids; 30 μM,statistically significant response
same,mean increase of SG (SYTOX green dead stain) fluorescence normalized to the mean,"U87 glioma cuboids; 100 μM, 2-day maximal drug treatment, used as threshold for death",1.4
same,"cell death response, mean fluorescence ratio SG dead nuclear to Hoechst pan-nuclear",U87 glioma cuboids; 100 μM,showing a trend
same,response by SG/H live viability staining,U87 glioma slices,cell death
